Earlier results on 2 compounds are cited in US11771784B2, “Material, device, and method for deactivating pathogen in aerosol, and methods for manufacturing thereof” (priority 2016, dated 2023).

For the series the following is noted: in water.

In the case of `[Cl-].[K+]` [potassium chloride], the maximum solubility limit entry is reported as “about 355 g/l”.

Take (sodium/potassium) tartrates: the maximum solubility limit result is “about 660 g/l”.
